{
  "source": "patent US8652997B2",
  "about": "“Active compound combinations” (Bayer CropScience AG, priority 2009, dated 2014)",
  "format_in_all_cases": "in vivo",
  "key": {"[1]": {"test_system": "Septoria tritici", "experiment": "Septoria tritici-test (wheat)/preventive", "settings": "preventive spray, evaluated 21 days after inoculation", "experimental": "Septoria tritici-Test (Wheat)/Preventive\n(§1) Solvent: 49 parts by weight of n,n-dimethylacetamid\n(§2) Emulsifier: 1 part by weight of alkylaryl polyglycol ether\n(§3) To produce a suitable preparation of active compound, 1 part by weight of active compound or active compound combination is mixed with the stated amounts of solvent and emulsifier, and the concentrate is diluted with water to the desired concentration.\n(§4) To test for preventive activity, young plants are sprayed with the preparation of active compound or active compound combination at the stated rate of application.\nAfter the spray coating has been dried, the plants are sprayed with a spore suspension of Septoria tritici. The plants remain for 48 hours in an incubation cabinet at approximately 20° C. and a relative atmospheric humidity of approximately 100% and afterwards for 60 hours at approximately 15° C. in a translucent incubation cabinet at a relative atmospheric humidity of approximately 100%.\nThe plants are placed in the greenhouse at a temperature of approximately 15° C. and a relative atmospheric humidity of approximately 80%.\nThe test is evaluated 21 days after the inoculation. 0% means an efficacy which corresponds to that of the control, while an efficacy of 100% means that no disease is observed."}, "[2]": {"test_system": "larvae of the diamondback moth (Plutella xylostella)", "experiment": "Plutella xylostella test (sprayed cabbage leaves)", "experimental": "(§5) Solvent: 7 parts by weight of dimethylformamide\n(§6) Emulsifier: 2 parts by weight of alkylaryl polyglycolether\n(§7) To produce a suitable preparation of active compound, 1 part by weight of active compound is mixed with the stated amount of solvent and emulsifier, and the concentrate is diluted with emulsifier-containing water to the desired concentration.\nCabbage leaves (Brassica oleracea) are treated by being sprayed into the preparation of the active compound of the desired concentration and are infested with larvae of the diamondback moth (Plutella xylostella) as long as the leaves are still moist.\nAfter the specified period of time, the mortality in % is determined. 100% means that all the caterpillars have been killed; 0% means that none of the caterpillars have been killed."}, "[3]": {"test_system": "Fusarium nivale (var. majus)", "experiment": "Fusarium nivale (var. majus)-test (wheat)/preventive", "settings": "preventive spray, evaluated 5 days after inoculation", "experimental": "Fusarium nivale (Var. majus)-Test (Wheat)/Preventive\nas §1, §2, §3, §4\nAfter the spray coating has been dried, the plants are slightly injured by using a sandblast and afterwards they are sprayed with a conidia suspension of Fusarium nivale (var. majus).\nThe plants are placed in the greenhouse under a translucent incubation cabinet at a temperature of approximately 10° C. and a relative atmospheric humidity of approximately 100%.\nThe test is evaluated 5 days after the inoculation. 0% means an efficacy which corresponds to that of the control, while an efficacy of 100% means that no disease is observed."}, "[4]": {"test_system": "two spotted spidermites (Tetranychus urticae)", "experiment": "Tetranychus urticae test (sprayed French bean leaves)", "experimental": "as §5, §6, §7\nFrench bean leaves (Phaseolus vulgaris) which are heavily infested with all stages of the two spotted spidermites (Tetranychus urticae) are treated by being sprayed into the preparation of the active compound of the desired concentration.\nAfter the specified period of time, the mortality in % is determined. 100% means that all the spider mites have been killed; 0% means that none of the spider mites have been killed."}, "[5]": {"settings": "48 h, read-out: Mortality in % after 2d"}, "[6]": {"settings": "48 h, after 2 d, read-out: Mortality in % after 2d"}, "[7]": {"settings": "96 h, after 4 d, read-out: Mortality in % after 4d"}, "[8]": {"settings": "96 h, read-out: Mortality in % after 4d"}},
  "note": "Like-named read-outs stand apart in the source and are kept apart here.",
  "data": [
    {"smiles": "O=[N+]([O-])/N=C1\\NCCN1Cc1ccc(Cl)nc1", "note": "[Imidacloprid, imidacloprid]", "values": [
      {"measurement": "Efficacy in % found", "setting": "[1]; 500 g/ha", "value": 22, "unit": "%"},
      {"measurement": "Efficacy in % found", "setting": "[1]; 1000 g/ha", "value": 22, "unit": "%"},
      {"measurement": "mortality at 20 ppm", "setting": "[2]; [5]", "value": 0, "unit": "%"},
      {"measurement": "mortality at 100 ppm", "setting": "[2]; [5]", "value": 20, "unit": "%"}
    ]},
    {"smiles": "N#Cc1ccccc1NC(=O)c1snc(Cl)c1Cl", "note": "[Isotianil, 3,4-dichloro-N-(2-cyanophenyl)-5-isothiazolecarboxamide]", "values": [
      {"measurement": "Efficacy in % found", "setting": "[1]; 500 g/ha", "value": 33, "unit": "%"},
      {"measurement": "Efficacy in % found", "setting": "[1]; 1000 g/ha", "value": 33, "unit": "%"},
      {"measurement": "Efficacy in % found", "setting": "[3]; 1000 g/ha", "value": 25, "unit": "%"},
      {"measurement": "mortality at 200 ppm", "setting": "[2]; [6]", "value": 5, "unit": "%"},
      {"measurement": "mortality at 200 ppm", "setting": "[2]; [7]", "value": 5, "unit": "%"},
      {"measurement": "mortality at 200 ppm", "setting": "[4]; [6]", "value": 0, "unit": "%"},
      {"measurement": "mortality at 200 ppm", "setting": "[4]; [7]", "value": 0, "unit": "%"}
    ]},
    {"smiles": "CCC(C)(C)C(=O)OC1=C(c2ccc(Cl)cc2Cl)C(=O)OC12CCCCC2", "note": "[Spirodiclofen, spirodiclofen]", "values": [
      {"measurement": "Efficacy in % found", "setting": "[1]; 250 g/ha", "value": 22, "unit": "%"},
      {"measurement": "Efficacy in % found", "setting": "[3]; 250 g/ha", "value": 13, "unit": "%"},
      {"measurement": "mortality at 20 ppm", "setting": "[2]; [8]", "value": 15, "unit": "%"},
      {"measurement": "mortality at 20 ppm", "setting": "[4]; [5]", "value": 30, "unit": "%"}
    ]},
    {"smiles": "Cc1cc(C)c(C2=C(OC(=O)CC(C)(C)C)C3(CCCC3)OC2=O)c(C)c1", "note": "[Spiromesifen, spiromesifen]", "values": [
      {"measurement": "Efficacy in % found", "setting": "[3]; 250 g/ha", "value": 38, "unit": "%"},
      {"measurement": "mortality at 500 ppm", "setting": "[2]; [8]", "value": 25, "unit": "%"},
      {"measurement": "mortality at 100 ppm", "setting": "[4]; [8]", "value": 75, "unit": "%"}
    ]},
    {"smiles": "CCOC(=O)OC1=C(c2cc(C)ccc2C)C(=O)N[C@]12CC[C@@H](OC)CC2", "note": "[Spirotetramat, spirotetramat]", "values": [
      {"measurement": "Efficacy in % found", "setting": "[1]; 250 g/ha", "value": 22, "unit": "%"},
      {"measurement": "mortality at 20 ppm", "setting": "[2]; [5]", "value": 20, "unit": "%"},
      {"measurement": "mortality at 20 ppm", "setting": "[4]; [8]", "value": 55, "unit": "%"}
    ]}
  ]
}
